Assay in all cases: biochemical
Design in all cases: DiscoverX KINOMEscan scanMAX competition binding panel, single concentration, percent of control; remaining binding: dose or concentration left out as unconfirmed
Common to all, as to conditions: KINOMEscan binding, percent of control; read-out: Table S4_SCANMAX REPORT - related to Fig. 1 / Percent Control

The target in test [1] is T1, ABL1-phosphorylated (Homo sapiens, UniProt P00519).
T1 construct: phosphorylated

Test [2] addresses SLK (Homo sapiens, UniProt Q9H2G2).
In test [3] the target is T2, BRK (Homo sapiens, UniProt Q13882).
T2 construct: gene PTK6

Test [4] concerns the target FES (Homo sapiens, UniProt P07332).
In test [5] the target is WEE1 (Homo sapiens, UniProt P30291).
The target of test [6] is CDK5 (Homo sapiens, UniProt Q00535).
Test [7] concerns the target T3, TAK1 (Homo sapiens, UniProt O43318).
T3 construct: gene MAP3K7

In test [8] the target is T4, RSK3(Kin.Dom.1-N-terminal) (Homo sapiens, UniProt Q15349).
T4 construct: gene RPS6KA2; Kin.Dom.1-N-terminal
T4 sequence (Q15349 whole entry): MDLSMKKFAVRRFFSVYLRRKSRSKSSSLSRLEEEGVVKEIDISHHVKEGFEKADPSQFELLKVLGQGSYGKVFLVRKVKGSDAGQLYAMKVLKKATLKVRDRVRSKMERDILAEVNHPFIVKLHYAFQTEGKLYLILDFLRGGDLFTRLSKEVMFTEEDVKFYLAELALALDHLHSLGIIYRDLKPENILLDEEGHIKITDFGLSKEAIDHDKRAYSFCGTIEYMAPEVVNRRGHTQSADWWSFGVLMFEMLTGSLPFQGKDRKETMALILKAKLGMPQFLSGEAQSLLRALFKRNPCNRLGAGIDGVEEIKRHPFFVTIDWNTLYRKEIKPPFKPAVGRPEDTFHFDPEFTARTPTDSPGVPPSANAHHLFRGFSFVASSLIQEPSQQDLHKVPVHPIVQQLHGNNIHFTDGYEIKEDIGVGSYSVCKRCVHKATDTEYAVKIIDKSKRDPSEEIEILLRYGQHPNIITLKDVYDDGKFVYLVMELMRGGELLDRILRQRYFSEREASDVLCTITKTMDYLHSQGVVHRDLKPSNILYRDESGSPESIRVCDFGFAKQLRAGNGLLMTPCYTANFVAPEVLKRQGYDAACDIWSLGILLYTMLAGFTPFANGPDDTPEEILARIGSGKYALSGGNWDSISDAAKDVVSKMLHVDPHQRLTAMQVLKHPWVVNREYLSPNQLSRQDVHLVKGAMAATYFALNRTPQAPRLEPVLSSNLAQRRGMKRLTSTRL

The target in test [9] is FGFR2 (Homo sapiens, UniProt P21802).
For test [10], the target named is T5, ZAK (Homo sapiens, UniProt Q9NYL2).
T5 construct: gene MAP3K20

The target in test [11] is T6, p38-gamma (Homo sapiens, UniProt P53778).
T6 construct: gene MAPK12

In test [12] the target is WNK2 (Homo sapiens, UniProt Q9Y3S1).
WNK2, sequence (Q9Y3S1 whole entry): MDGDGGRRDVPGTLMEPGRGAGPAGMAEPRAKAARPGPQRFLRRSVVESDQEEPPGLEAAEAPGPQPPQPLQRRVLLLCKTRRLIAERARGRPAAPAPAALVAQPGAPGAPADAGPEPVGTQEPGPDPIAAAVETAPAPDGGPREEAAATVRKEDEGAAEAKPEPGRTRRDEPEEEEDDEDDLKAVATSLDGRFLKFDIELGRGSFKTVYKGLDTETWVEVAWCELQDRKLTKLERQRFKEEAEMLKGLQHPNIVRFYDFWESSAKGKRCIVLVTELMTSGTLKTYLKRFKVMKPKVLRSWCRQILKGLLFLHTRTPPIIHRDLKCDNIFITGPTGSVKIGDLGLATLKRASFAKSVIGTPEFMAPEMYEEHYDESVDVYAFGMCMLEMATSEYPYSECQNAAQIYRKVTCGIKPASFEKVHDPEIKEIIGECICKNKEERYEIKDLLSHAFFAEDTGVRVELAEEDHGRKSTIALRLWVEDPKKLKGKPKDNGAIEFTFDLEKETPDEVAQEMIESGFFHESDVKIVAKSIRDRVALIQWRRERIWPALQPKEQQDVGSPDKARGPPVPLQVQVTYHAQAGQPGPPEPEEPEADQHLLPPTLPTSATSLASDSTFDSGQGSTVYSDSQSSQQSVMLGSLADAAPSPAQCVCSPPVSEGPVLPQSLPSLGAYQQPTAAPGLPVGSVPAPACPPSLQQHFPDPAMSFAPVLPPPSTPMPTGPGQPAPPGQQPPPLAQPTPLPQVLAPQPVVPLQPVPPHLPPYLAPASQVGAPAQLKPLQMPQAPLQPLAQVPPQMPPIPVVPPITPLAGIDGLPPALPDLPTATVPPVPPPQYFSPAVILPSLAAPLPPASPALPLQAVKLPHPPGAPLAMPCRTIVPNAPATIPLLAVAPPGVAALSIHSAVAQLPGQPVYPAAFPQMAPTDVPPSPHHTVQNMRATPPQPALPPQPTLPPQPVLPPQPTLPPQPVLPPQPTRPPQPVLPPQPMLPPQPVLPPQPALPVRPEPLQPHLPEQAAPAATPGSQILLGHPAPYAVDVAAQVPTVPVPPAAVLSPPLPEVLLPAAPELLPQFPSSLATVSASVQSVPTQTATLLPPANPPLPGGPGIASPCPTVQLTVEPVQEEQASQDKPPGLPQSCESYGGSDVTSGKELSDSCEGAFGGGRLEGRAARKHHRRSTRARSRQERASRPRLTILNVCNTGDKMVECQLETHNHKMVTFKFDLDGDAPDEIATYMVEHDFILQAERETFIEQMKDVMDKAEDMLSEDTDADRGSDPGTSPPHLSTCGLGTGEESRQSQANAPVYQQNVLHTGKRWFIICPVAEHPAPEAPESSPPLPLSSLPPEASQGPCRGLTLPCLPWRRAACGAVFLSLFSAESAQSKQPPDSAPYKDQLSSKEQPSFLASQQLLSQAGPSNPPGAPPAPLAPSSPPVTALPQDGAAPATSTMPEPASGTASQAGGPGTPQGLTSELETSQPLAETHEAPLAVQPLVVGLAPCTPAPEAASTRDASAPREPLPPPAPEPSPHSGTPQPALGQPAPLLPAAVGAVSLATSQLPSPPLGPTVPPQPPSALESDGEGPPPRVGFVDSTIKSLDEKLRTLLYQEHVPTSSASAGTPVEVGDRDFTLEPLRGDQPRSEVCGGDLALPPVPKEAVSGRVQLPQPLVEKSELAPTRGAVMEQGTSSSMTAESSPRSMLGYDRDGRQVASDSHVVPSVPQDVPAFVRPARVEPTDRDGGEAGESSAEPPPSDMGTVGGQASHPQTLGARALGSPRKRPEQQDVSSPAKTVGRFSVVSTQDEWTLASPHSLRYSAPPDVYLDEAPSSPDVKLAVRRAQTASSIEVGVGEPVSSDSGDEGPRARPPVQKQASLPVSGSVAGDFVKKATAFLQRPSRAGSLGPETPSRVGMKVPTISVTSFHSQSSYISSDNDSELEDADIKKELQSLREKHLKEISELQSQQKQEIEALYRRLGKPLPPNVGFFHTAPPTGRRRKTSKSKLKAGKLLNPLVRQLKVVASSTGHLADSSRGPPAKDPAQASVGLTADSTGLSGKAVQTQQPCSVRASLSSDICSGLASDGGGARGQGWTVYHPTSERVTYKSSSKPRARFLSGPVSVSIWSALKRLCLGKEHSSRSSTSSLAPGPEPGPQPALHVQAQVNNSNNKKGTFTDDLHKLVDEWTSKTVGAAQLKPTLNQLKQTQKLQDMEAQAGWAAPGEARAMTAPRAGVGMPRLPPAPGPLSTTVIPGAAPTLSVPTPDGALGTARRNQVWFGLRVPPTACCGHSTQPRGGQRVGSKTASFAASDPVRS
Test [13] addresses MARK2 (Homo sapiens, UniProt Q7KZI7).
In test [14] the target is GRK7 (Homo sapiens, UniProt Q8WTQ7).
The target of test [15] is FLT3(ITD,D835V) (Homo sapiens, UniProt P36888, D835V/ITD).
Test [16] concerns the target PLK1 (Homo sapiens, UniProt P53350).
In test [17] the target is T7, AMPK-alpha2 (Homo sapiens, UniProt P54646).
T7 construct: gene PRKAA2

Test [18] has as its target INSRR (Homo sapiens, UniProt P14616).

T3 sequence (O43318 whole entry): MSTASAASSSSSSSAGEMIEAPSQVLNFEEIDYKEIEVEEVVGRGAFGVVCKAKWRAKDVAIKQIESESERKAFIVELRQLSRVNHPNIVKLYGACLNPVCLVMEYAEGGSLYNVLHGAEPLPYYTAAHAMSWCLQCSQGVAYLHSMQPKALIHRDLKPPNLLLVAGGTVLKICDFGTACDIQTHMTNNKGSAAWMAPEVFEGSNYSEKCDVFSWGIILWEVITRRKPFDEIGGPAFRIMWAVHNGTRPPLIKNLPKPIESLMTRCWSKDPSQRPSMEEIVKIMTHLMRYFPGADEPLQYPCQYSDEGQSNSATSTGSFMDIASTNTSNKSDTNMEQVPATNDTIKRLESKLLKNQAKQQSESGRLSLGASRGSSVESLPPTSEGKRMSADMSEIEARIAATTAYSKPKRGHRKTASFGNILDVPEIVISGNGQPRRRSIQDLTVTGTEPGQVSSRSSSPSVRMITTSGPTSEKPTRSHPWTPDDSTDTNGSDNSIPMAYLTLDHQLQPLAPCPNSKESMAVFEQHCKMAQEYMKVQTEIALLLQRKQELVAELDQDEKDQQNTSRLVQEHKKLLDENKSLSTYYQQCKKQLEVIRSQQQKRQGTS
INSRR, sequence (P14616 whole entry): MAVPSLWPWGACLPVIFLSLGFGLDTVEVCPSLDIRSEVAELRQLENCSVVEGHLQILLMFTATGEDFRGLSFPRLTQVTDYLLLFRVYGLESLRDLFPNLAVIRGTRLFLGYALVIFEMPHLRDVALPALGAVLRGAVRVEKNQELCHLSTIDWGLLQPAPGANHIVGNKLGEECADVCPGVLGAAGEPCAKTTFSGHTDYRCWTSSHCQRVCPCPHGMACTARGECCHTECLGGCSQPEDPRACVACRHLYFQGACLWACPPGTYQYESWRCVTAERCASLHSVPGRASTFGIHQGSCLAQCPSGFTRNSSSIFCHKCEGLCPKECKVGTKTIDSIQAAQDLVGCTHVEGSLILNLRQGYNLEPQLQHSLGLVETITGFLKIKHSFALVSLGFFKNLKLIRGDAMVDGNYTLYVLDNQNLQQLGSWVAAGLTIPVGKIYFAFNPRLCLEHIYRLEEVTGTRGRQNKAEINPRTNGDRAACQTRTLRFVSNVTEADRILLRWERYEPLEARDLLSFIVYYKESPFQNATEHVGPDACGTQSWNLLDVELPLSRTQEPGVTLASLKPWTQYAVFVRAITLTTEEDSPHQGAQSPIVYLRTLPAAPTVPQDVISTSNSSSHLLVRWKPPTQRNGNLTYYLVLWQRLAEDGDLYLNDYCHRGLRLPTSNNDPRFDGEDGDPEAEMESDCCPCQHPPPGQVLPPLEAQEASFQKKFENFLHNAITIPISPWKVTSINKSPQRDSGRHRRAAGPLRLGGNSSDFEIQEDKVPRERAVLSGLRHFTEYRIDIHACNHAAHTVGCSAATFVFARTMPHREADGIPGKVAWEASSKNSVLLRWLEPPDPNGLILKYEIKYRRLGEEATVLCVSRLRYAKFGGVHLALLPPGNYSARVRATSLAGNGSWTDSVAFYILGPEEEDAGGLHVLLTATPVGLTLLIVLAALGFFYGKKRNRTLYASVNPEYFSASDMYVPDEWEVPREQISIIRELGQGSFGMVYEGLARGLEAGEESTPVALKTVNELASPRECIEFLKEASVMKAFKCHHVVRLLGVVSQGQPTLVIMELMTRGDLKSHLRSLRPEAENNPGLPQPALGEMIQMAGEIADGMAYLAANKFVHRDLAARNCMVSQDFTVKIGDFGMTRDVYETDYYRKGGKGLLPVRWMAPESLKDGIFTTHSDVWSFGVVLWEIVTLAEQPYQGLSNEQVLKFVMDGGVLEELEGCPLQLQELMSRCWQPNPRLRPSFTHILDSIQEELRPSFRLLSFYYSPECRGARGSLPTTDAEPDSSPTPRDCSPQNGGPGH

As for `c1ccc2c(c1)Sc1ccccc1N2CCN1CCOCC1` [J54], the remaining binding in test [1] is 71%; in [2], 100%; in [3], 100%; in [4], 100%; in [5], 78%; in test [6], 99%. Moreover, the remaining binding in [7] worked out at 97%; in test [8], 100%; in test [9] it was 100%; in test [10] it was 85%; in [11], 58%; in test [12], 100%. Moreover, the remaining binding is 99% in test [13]; 100% in test [14]; 57% in [15]; 100% in test [16]; 100% in test [17]; 85% in [18].

(Values after publication PMC7486443, “Generation of Phenothiazine with Potent Anti-TLK1 Activity for Prostate Cancer Therapy” (iScience, 2020).)
